Measured values published in US20220339143A1, “TAK-925 FOR USE IN TREATING NARCOLEPSY” (Takeda Pharmaceutical Company Limited, priority 2019, published 2022).

Assay: Single dose PK in healthy subjects (Cohorts 1, 2, S1 and S2), plasma
Format: in vivo, human
Procedure: This study investigates (i) the safety and tolerability of Compound A (methyl (2R,3S)-3-((methylsulfonyl)amino)-2-(((cis-4-phenylcyclohexyl)oxy)methyl)piperidine-1-carboxylate) when a single dose given as a 9 hour continuous IV infusion is administered to healthy adults, healthy elderly subjects and patients with narcolepsy type 1 (NT1); (ii) the pharmacokinetics of Compound A when a single dose given as a 9 hour continuous IV infusion is administered to healthy adults, healthy elderly subjects and patients with narcolepsy type 1; and (iii) the pharmacodynamics (PD) effects of Compound A, primarily by evaluation of the sleep latency on MWT when a single dose given as a 9 hour continuous IV infusion is administered to patients with narcolepsy type 1.
Pharmacokinetics: Concentrations of Compound A in plasma, and CSF, and pharmacokinetics parameters.
On average, the time to reach the plateau appeared to be approximately 3 to 4 hours after the start of infusion. […] After switching off the IV infusion, Compound A plasma concentrations declined rapidly and in a biphasic manner with a mean terminal disposition phase t1/2z ranging approximately from 3.4 to 5.1 hours across all doses. […] Table 5 provides a summary of plasma concentrations of Compound A after a single IV infusion in healthy subjects. Table 6 provides a summary of pharmacokinetic parameters of Compound A after a single IV infusion in healthy subjects.

[1] = 7 mg single IV infusion, healthy subjects
[2] = 7 mg, 0.17 hr After End of Infusion
[3] = 14 mg single IV infusion, healthy subjects
[4] = 28 mg single IV infusion, healthy subjects
[5] = 28 mg, 0.17 hr After End of Infusion
[6] = 28 mg, 0.33 hr After End of Infusion
[7] = 28 mg, 0.5 hr After End of Infusion
[8] = 28 mg, 0.75 hr After End of Infusion
[9] = 28 mg, 1 hr After End of Infusion
[10] = 28 mg, 1.5 hr After End of Infusion
[11] = 28 mg, 2 hr After End of Infusion
[12] = 56 mg single IV infusion, healthy subjects
[13] = 56 mg, 0.17 hr After End of Infusion
[14] = 56 mg, 0.33 hr After End of Infusion
[15] = 56 mg, 0.5 hr After End of Infusion
[16] = 56 mg, 0.75 hr After End of Infusion
[17] = 56 mg, 1 hr After End of Infusion
[18] = 56 mg, 1.5 hr After End of Infusion

## COC(=O)N1CCC[C@H](NS(C)(=O)=O)[C@@H]1CO[C@H]1CC[C@@H](c2ccccc2)CC1 [Compound A, methyl (2R,3S)-3-((methylsulfonyl)amino)-2-(((cis-4-phenylcyclohexyl)oxy)methyl)piperidine-1-carboxylate]
[1]
  AUCinf D Mean: 20.48 ng·h/mL/mg
  AUCinf D Median: 20.80 ng·h/mL/mg
  CL Median: 48.10 L/h
  Cmax D Mean: 2.416 ng/mL/mg
  Cmax D Median: 2.360 ng/mL/mg
  Vss Median: 100.0 L
  t½z Mean: 4.120 h
  t½z Median: 3.220 h
[2]
  Plasma concentration, Mean: 9.360 ng/mL
  Plasma concentration, Minimum: 7.91 ng/mL
  Plasma concentration, Q1: 9.090 ng/mL
7 mg, Predose
  Plasma concentration, Mean: 0.000 ng/mL
  Plasma concentration, Minimum: 0.00 ng/mL
  Plasma concentration, Q1: 0.000 ng/mL
[3]
  AUCinf D Mean: 23.70 ng·h/mL/mg
  AUCinf D Median: 23.05 ng·h/mL/mg
  Cmax D Mean: 2.647 ng/mL/mg
  Cmax D Median: 2.640 ng/mL/mg
  t½z Mean: 4.498 h
  t½z Median: 4.170 h
[4]
  AUCinf D Mean: 18.90 ng·h/mL/mg
  AUCinf D Median: 19.60 ng·h/mL/mg
  Cmax D Mean: 2.076 ng/mL/mg
  Cmax D Median: 2.120 ng/mL/mg
  t½z Mean: 5.142 h
  t½z Median: 5.060 h
[5]
  Plasma concentration, Maximum: 34.9 ng/mL
  Plasma concentration, Mean: 32.52 ng/mL
  Plasma concentration, Median: 32.80 ng/mL
  Plasma concentration, Minimum: 28.2 ng/mL
  Plasma concentration, Q1: 32.70 ng/mL
  Plasma concentration, Q3: 34.00 ng/mL
[6]
  Plasma concentration, Maximum: 32.2 ng/mL
  Plasma concentration, Mean: 28.04 ng/mL
  Plasma concentration, Median: 27.20 ng/mL
  Plasma concentration, Minimum: 25.4 ng/mL
  Plasma concentration, Q1: 26.70 ng/mL
  Plasma concentration, Q3: 28.70 ng/mL
[7]
  Plasma concentration, Maximum: 33.7 ng/mL
  Plasma concentration, Mean: 25.36 ng/mL
  Plasma concentration, Median: 24.20 ng/mL
  Plasma concentration, Minimum: 20.9 ng/mL
  Plasma concentration, Q1: 21.30 ng/mL
  Plasma concentration, Q3: 26.70 ng/mL
[8]
  Plasma concentration, Maximum: 23.9 ng/mL
  Plasma concentration, Mean: 20.82 ng/mL
  Plasma concentration, Median: 19.50 ng/mL
  Plasma concentration, Minimum: 19.0 ng/mL
  Plasma concentration, Q1: 19.10 ng/mL
  Plasma concentration, Q3: 22.60 ng/mL
[9]
  Plasma concentration, Maximum: 21.4 ng/mL
  Plasma concentration, Mean: 18.56 ng/mL
  Plasma concentration, Median: 18.00 ng/mL
  Plasma concentration, Minimum: 15.6 ng/mL
  Plasma concentration, Q1: 17.80 ng/mL
  Plasma concentration, Q3: 20.00 ng/mL
[10]
  Plasma concentration, Maximum: 18.9 ng/mL
  Plasma concentration, Mean: 16.70 ng/mL
  Plasma concentration, Median: 18.00 ng/mL
  Plasma concentration, Minimum: 13.6 ng/mL
  Plasma concentration, Q1: 14.90 ng/mL
  Plasma concentration, Q3: 18.10 ng/mL
[11]
  Plasma concentration, Maximum: 13.4 ng/mL
  Plasma concentration, Mean: 10.53 ng/mL
  Plasma concentration, Median: 9.600 ng/mL
  Plasma concentration, Minimum: 8.06 ng/mL
  Plasma concentration, Q1: 8.990 ng/mL
  Plasma concentration, Q3: 12.60 ng/mL
[12]
  AUCinf D Mean: 19.27 ng·h/mL/mg
  AUCinf D Median: 18.75 ng·h/mL/mg
  Cmax D Mean: 2.200 ng/mL/mg
  Cmax D Median: 2.170 ng/mL/mg
  t½z Mean: 3.860 h
  t½z Median: 3.760 h
[13]
  Plasma concentration, Maximum: 79.9 ng/mL
  Plasma concentration, Mean: 63.58 ng/mL
  Plasma concentration, Median: 62.50 ng/mL
  Plasma concentration, Minimum: 54.5 ng/mL
  Plasma concentration, Q1: 55.60 ng/mL
  Plasma concentration, Q3: 66.50 ng/mL
[14]
  Plasma concentration, Mean: 54.37 ng/mL
  Plasma concentration, Median: 53.25 ng/mL
  Plasma concentration, Minimum: 44.7 ng/mL
  Plasma concentration, Q1: 45.00 ng/mL
[15]
  Plasma concentration, Mean: 50.33 ng/mL
  Plasma concentration, Median: 50.10 ng/mL
  Plasma concentration, Minimum: 38.4 ng/mL
  Plasma concentration, Q1: 40.90 ng/mL
[16]
  Plasma concentration, Mean: 45.77 ng/mL
  Plasma concentration, Median: 47.20 ng/mL
  Plasma concentration, Minimum: 33.3 ng/mL
  Plasma concentration, Q1: 36.90 ng/mL
[17]
  Plasma concentration, Mean: 41.83 ng/mL
  Plasma concentration, Median: 39.80 ng/mL
  Plasma concentration, Minimum: 30.1 ng/mL
  Plasma concentration, Q1: 34.80 ng/mL
[18]
  Plasma concentration, Mean: 33.63 ng/mL
  Plasma concentration, Median: 31.35 ng/mL
  Plasma concentration, Minimum: 27.4 ng/mL
  Plasma concentration, Q1: 28.40 ng/mL
